We go through three substances from article PMC6995525, “Structure of the PUB Domain from Ubiquitin Regulatory X Domain Protein 1 (UBXD1) and Its Interaction with the p97 AAA+ ATPase” (Biomolecules, 2019).

A value given as a limit tells only on which side of the number the result lay.

The target of one test is T1, UBXD1-PUB (Homo sapiens, UniProt Q9BZV1).
T1 construct: N-terminal hexahistidine-tagged UBXD1-PUB (150–264) was cloned into a pET28a expression vector; hexahistidine (His6) (N); made in house
T1 sequence (Q9BZV1 150-264): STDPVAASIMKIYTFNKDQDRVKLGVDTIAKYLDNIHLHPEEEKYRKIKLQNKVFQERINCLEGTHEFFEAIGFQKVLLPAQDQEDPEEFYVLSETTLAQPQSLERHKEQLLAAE
Briefly: 15N-HSQC NMR titration of 15N-labeled UBXD1-PUB with p97 peptides. The class given is binding. Conditions: 50 mM NaKPi pH 6.5, 25 °C; for binding in 15N-HSQC NMR titration: phosphorylated p97-C13-pY805, 270 µM protein, up to 1.25 mM peptide, 1.2 mM or 1.1 mM (Figure S1). As to the method: The NMR samples contained 200–800 µM of ^15N,^13C- or ^15N-labeled protein in 50 mM NaKPi pH 6.5, 90%/10% (v/v) H2O/D2O. ^13C(aliphatic)-COSY and TOCSY experiments were measured in the same buffer with 100% D2O. All spectra were recorded at 25 °C on a 700 MHz Bruker Ultrashield NMR spectrometer equipped with a 5 mm TCI (^1H/^13C/^15N) triple resonance cryoprobe head. Spectra were processed with Topspin 3.5 (Bruker) and analyzed with CARA [42].
To 362 μM ^15N-labeled UBXD1-PUB, the p97-C10 or p97-C13 peptides were added stepwise to a final concentration of 1.1 mM. For the titration of the phosphorylated p97-C13-pY^805 peptide to the PUB domain, the protein concentration was 270 µM, and the peptide was titrated to a final concentration of 1.2 mM. After each addition, the ^1H,^15N-HSQC spectrum was recorded.
The chemical shift perturbation Δδtotal was calculated from the ^1H- and ^15N-shifts according to Equation (1) using the spectra with no peptide and the highest concentration of peptide, where ΔδN and ΔδH represent the chemical shift perturbation value of the amide nitrogen and proton, respectively:(1) Δδtotal=(ΔδH)^2+(0.154⋅ΔδN)^2.

For another test, the target named is T2, UBXD1 PUB domain (Homo sapiens, UniProt Q9BZV1).
T2 construct: N-terminal hexahistidine-tagged UBXD1-PUB (150–264) was cloned into a pET28a expression vector; hexahistidine (His6) (N); made in house
T2 sequence (Q9BZV1 150-264): T1 sequence (Q9BZV1 150-264)
Briefly: p97-PIM peptide binding to UBXD1 PUB domain (summary). Conditions: isolated p97-PIM peptide. As to the method:
Fluorescence anisotropy measurements (excitation: 495 nm; emission 518 nm) were carried out on a JASCO FP-8300 fluorescence spectrometer in 50 mM NaKPi, pH 6.5 at 25 °C, titrating PUB constructs to 5,6-FAM labeled p97-C10 peptide (100 nM). All titrations were performed in triplicate. Binding curves of the averaged data were fitted with GraphPad Prism 5.0 (GraphPad) using the quadratic binding equation for a one-site specific binding model:(3) r=r0+rmax⋅(F+x+KD)−(F+x+KD)^2−4⋅x⋅F/2⋅F, with r = anisotropy, r0 = anisotropy without protein, rmax = maximum anisotropy, F = fluorescent probe (labeled peptide or protein) concentration, x = titrant protein concentration, and KD = dissociation constant.
ITC measurements were performed in triplicate with a MicroCal iTC2000 (Malvern Pananalytical). UBXD1-PUB (100 µM) was titrated with 1 mM of p97-C10 peptide in 50 mM NaKPi buffer (pH 6.5) at 25 °C in 40 steps with a volume of 0.5 µL for the first 9 steps and 1.0 µL for the remaining ones.

The target of a further test is PNGase PUB domain. Conditions: ref [25],[27],[34]; cited from earlier work. From the text: (§1) UBXD1, PNGase, and HOIP PUB domains bind the p97-PIM peptide with KDs in the low µM range and a 1:1 stoichiometry (Table 2, Figure 4, Figure 5 and Figure S2, and [25, 27, 34]). The KD of HOIP for the OTULIN- and SPATA2-PIMs, however, is 50 times lower and lies in the nM range, which maybe reflects that these complexes either operate at lower concentrations in the cell or a have a lesser need to exchange their binding partners. p97, on the other hand, might need to swap cofactors more readily either within one pathway or to switch between different pathways.

For another test, the target named is HOIP PUB domain. The settings on record: ref [25],[27],[34]; cited from earlier work.
Description: as §1

Consider SVYTEDNDDDLYG [p97-C13], for which the “chemical shift perturbations (CSPs) Δδtotal” value on UBXD1-PUB (362 μM 15N-UBXD1-PUB, peptide to 1.1 mM, resonances between second and fourth α-helix) is listed as > 0.2 ppm.

In the case of SVYTEDNDDDLpYG [phosphorylated p97-C13], the “binding in 15N-HSQC NMR titration” value at UBXD1-PUB is given as “no”; on UBXD1-PUB (listed as p97-C13 peptide carrying a phosphorylated pY805), “did not show any binding”.

For “p97-PIM peptide: PUB interacting motif (PIM) in the p97 C-terminus (TEDNDDDLYG)”, the “KD of PUB domain for p97-PIM peptide” value with UBXD1 PUB domain, on PNGase PUB domain and on HOIP PUB domain was “low µM range” throughout.
